From patent US5354691A, “Polypeptides and derivatives thereof as well as their use in pharmaceutical and diagnostic compositions” (priority 1987, dated 1994)

Assays:
[1] = system: T-cell clones A2b and A2c; conditions: from European patent application 0 262 710 / EP-A-0 181 364; cited from earlier work
[2] = system: T-cell clones A2b and A2c; test: Stimulating activity on T-cell clones A2b and A2c, stated for both clones together; format: cell-based, rat
T-cell clone A2b = test: T-cell clone proliferation (3H-thymidine uptake, stimulation index), clone A2b; format: cell-based, rat; conditions: polypeptide with sequence homologous to antigen A 180-188

proteoglycan protein of cartilage: proteoglycan protein of cartilage (J.Biol.Chem. 261, 3519-3535)
recognition by / response of T-cell clones A2b and A2c [1]: recognized

RARLQLELS [lamin A and C]
response of the T-cell clones A2b and A2c [2]: react positively

TFGLQPQDT [antigen from Epstein-Barr virus]
response of T-cell clone A2b (T-cell clone A2b): responds
